Assay results published in patent US11806393B2, “Flavivirus peptide sequences, epitopes, and methods and uses thereof” (priority 2017, dated 2023).

Assays:
Format in all cases: cell-based, mouse
CD8+ T cells [1] = assay: IFNγ ELISPOT, DENV2 S221-infected Ifnar-/- HLA-B*0702 transgenic mice; settings: HLA-B*0702 mice, 7 days after 2×10^4 FFU DENV2 S221
Method: (§1) Two ZIKV strains, MR766 (Uganda, 1947) and FSS13025 (Cambodia, 2010), were obtained from the World Reference Center for Emerging Viruses and Arboviruses (WRCEVA). The mouse-adapted DENV2 strain S221 is a triple-plaque purified clone derived from DENV2 D2S1038. Both ZIKV and DENV2 were amplified in C6/36 mosquito cells, and viral titers were measured using baby hamster kidney (BHK)-21 cell-based focus forming assay (FFA). For epitope screening, 5-week old mice (female or male) were infected retro-orbitally (R.O.) with either 1×102 FFU of ZIKV FSS13025 or ZIKV MR766, or 2×10^4 FFU of DENV2 S221 in 200 μl 10% FBS/PBS. Seven days after infection, CD8^+ T cells were isolated from splenocytes and used for ELISPOT assay, while the splenocytes were directly used for ICS assay. Additionally, 5-week old mice were inoculated I.P. with 2×10^3 FFU of DENV2 S221 for 4 weeks.
(§2) CD8^+ T cells were isolated from splenocytes using magnetic bead positive selection (Miltenyi Biotec, Germany) 7 days after virus infection. 2×10^5 CD8^+ T cells were stimulated with 1×10^5 LPS-blasts loaded with 10 μg of individual peptide in 96-well flat-bottom plates (IMMOBILON™-P; Millipore, Bedford, Mass.) that were coated with anti-IFNγ mAb (clone AN18; Mabtech, Stockholm, Sweden) in triplicate. Concanavalin A (ConA) was used as positive control. After 20 hours of incubation, biotinylated anti-mouse IFNγ mAb (R4-6A2; Mabtech), followed by ABC peroxidase (Vector Laboratories, Burlingame, Calif., USA) and then 3-amino-9-ethylcarbazole (Sigma-Aldrich, St. Louis, Mo., USA) were added into the wells. […] A peptide inducing a magnitude of >500 SFCs/10^6 CD8^+ T cells was considered as an immunodominant peptide.
(§3) The following results are with respect to FIG. 14A and FIG. 14B, where Ifnar^−/− HLA-B*0702 transgenic mice were infected R.O. with 2×10^4 FFU of DENV2 strain S221 for 7 days. CD8^+ T cells isolated from splenocytes were stimulated with each of the 37 ZIKV epitopes identified via IFNγELISPOT to perform (FIG. 14A) IFNγELISPOT and (FIG. 14B) ICS assay. Data represent the average of two independent IFNγELISPOT experiments and two independent ICS experiments (n=7 mice) and are expressed as mean±SEM. Dotted line corresponds to the cutoff value. *, P<0.05.

CD3+CD8+ T cells = assay: IFNγ ICS, ZIKV-infected Ifnar-/- HLA-B*0702 transgenic mice; settings: for % IFNγ+ CD8+ T cells, MR766: 7 days after ZIKV MR766, ICS
Method: as §1
(§4) Spleens were harvested from virus-infected, mock-immunized, or peptide-immunized mice. 1×10^6 splenocytes were plated in each well of 96-well U-bottom plates and stimulated with individual peptide (10 μg crude peptide or 1 μg pure peptide per well) for 6 hours. Five hours before the end of incubation, Brefeldin A (GolgiPlug; BD Biosciences) and PE-conjugated anti CD107a mAb (clone 1D4B, eBioscience) were added to the cells. Splenocytes stimulated with PMA-ionomycin were used as the positive control, while cells without any stimulation were the negative control. […] Samples were run using an LSR™ II (BD Biosciences) and analyzed using FLOWJO™ software X 10.0.7 (Tree Star, Ashland, Oreg.).
Data represent the average of two independent experiments and are expressed as mean±SEM. *, P<0.05; **, P<0.01; Two-tailed Mann-Whitney test. P/I denotes PMA/ionomycin.

CD8+ T cells [2] = assay: IFNγ ELISPOT, ZIKV-infected Ifnar-/- HLA-B*0702 transgenic mice; settings: HLA-B*0702 mice; for SFC/10^6 CD8+ T cells, MR766: 7 days after 1×10^2 FFU ZIKV MR766; for SFC/10^6 CD8+ T cells, FSS13025: 7 days after 1×10^2 FFU ZIKV FSS13025
Method: as §1, §2
Two independent experiments performed in triplicate were averaged and the error bars represent the SEM. The data are expressed as the mean number of spot forming cells (SFC) per 10^6 CD8^+ T cells. The criteria for positivity were net SFC per 10^6 cells of >20, and a stimulation index of >2.0 when compared with the negative control. Dotted lines represent the cutoff value. * Indicates a positive response. […] ConA denotes Concanavalin A.

CD44+CD62L- CD8+ T cells = assay: ICS, peptide-immunized Ifnar-/- HLA-B*0702 mice challenged with ZIKV; settings: day 3 after ZIKV challenge
Excerpt: Two HLA-B*0702-binding ZIKV-specific peptides (FSS-NS2A133-141(SEQ ID NO: 41) and FSS/MR766-NS2B68-75 (SEQ ID NO: 45)) and four ZIKV/DENV cross-reactive peptides (FSS/MR766-NS4B426-435 (SEQ ID NO: 60), FSS/MR766-NS2A75-84 (SEQ ID NO: 39), FSS/MR766-NS3206-215 (SEQ ID NO: 47), and FSS/MR766-NS3574-582 (SEQ ID NO: 52)) were chosen for synthesis. Five HLA-A*0101-binding peptides (FSS/MR-E159-167 (SEQ ID NO: 70), FSS/MR-E195-203 (SEQ ID NO: 71), FSS/MR-NS123-31 (SEQ ID NO: 74), FSS/MR-NS4B231-239 (SEQ ID NO: 77), and FSS/MR-NS5509-517 (SEQ ID NO: 79)) were chosen for synthesis. Mice (both female and male; 5-6 weeks of age) were immunized subcutaneously with a mixture of HCV helper peptide (100 μg/mouse) and 3 or 4 HLA-B*0702-binding peptides (50 μg/peptide/mouse) emulsified in Complete Freund's Adjuvant (CFA). Mock group mice received the same immunization strategy but without any ZIKV-specific or ZIKV/DENV cross-reactive peptide. On the 21st day, mice were boosted with the same peptide mixtures emulsified in Incomplete Freund's Adjuvant (IFA). […] Three days post ZIKV infection mice were sacrificed, and serum and spleen were harvested. The splenocytes were used for ICS assay. After cardiac perfusion with PBS, brain was harvested. The levels of infectious ZIKV in serum and brain were measured using FFA.
as §4
Peptide groups received corresponding peptide immunizations as described in Materials and Methods. […] CD3^+CD8^+CD44^+CD62L− T cells were gated and the percentages of IFNγ^+ and/or TNFα^+ cells in a representative mouse from mock (FIG. 12A) and peptide (FIG. 12B) groups were determined by ICS. The levels of infectious ZIKV in sera and brains were measured via FFA. Data were expressed as mean±SEM. *, P<0.05; **, P<0.01; ***, P<0.001. Two-tailed Mann-Whitney test.

CD8+ T cells [3] = assay: IFNγ ICS, DENV2 S221-infected Ifnar-/- HLA-B*0702 transgenic mice; settings: HLA-B*0702 mice; for % IFNγ+ CD8+ T cells, S221: 7 days after DENV2 S221, ICS
Method: as §1, §4, §3

With LPEIVREAI [FSS/MR-NS3188-196] the “SFC/10^6 CD8+ T cells, S221” value (CD8+ T cells [1]) was 63 SFC/10^6 CD8+ T cells, the “% IFNγ+ CD8+ T cells, MR766” value (CD3+CD8+ T cells; HLA-B*0702 mice) was “(0.23%)” and the “SFC/10^6 CD8+ T cells, MR766” value (CD8+ T cells [2]) was 179 SFC/10^6 CD8+ T cells.
RPGAFCIKVL [FSS/MR-NS4B426-435] was tested, and the “percentage of IFNγ-producing cells among antigen experienced (CD44+CD62L-) CD8+ T cells” value (CD44+CD62L- CD8+ T cells; mice immunized with the 3 ZIKV immunodominant epitopes) was 1.63±0.76%, the “percentage of epitope-specific cells among antigen experienced (CD44+CD62L-) CD8+ T cells” value (CD44+CD62L- CD8+ T cells; mice immunized with the 4 ZIKV/DENV cross-reactive peptides) was 1.52±0.42% and the “% IFNγ+ CD8+ T cells, S221” value (CD8+ T cells [3]) was “(0.3%)”. The “ZIKV/DENV cross-reactivity in DENV2-infected mice (IFNγ ELISPOT and IFNγ ICS)” value (CD8+ T cells [3]; DENV2 S221, 7 days) was “positive in both IFNγ ELISPOT and IFNγICS assays”, the “SFC/10^6 CD8+ T cells, S221” value (CD8+ T cells [1]) was 90 SFC/10^6 CD8+ T cells and the “% IFNγ+ CD8+ T cells, FSS13025” value (CD3+CD8+ T cells; HLA-B*0702 mice, 7 days after ZIKV FSS13025, ICS) was “(2.28%)”. For the same sequence, the “% IFNγ+ CD8+ T cells, MR766” value (CD3+CD8+ T cells; HLA-B*0702 mice) was “(2.36%)”, the “simultaneous IFNγ and TNFα secretion by peptide-stimulated CD8+ T cells” value (CD3+CD8+ T cells; mice infected with either ZIKV FSS13025 or ZIKV MR766) was “simultaneously secreted both IFNγ and TNFα” and the “SFC/10^6 CD8+ T cells, FSS13025” value (CD8+ T cells [2]) was 1223 SFC/10^6 CD8+ T cells. The “SFC/10^6 CD8+ T cells, MR766” value (CD8+ T cells [2]) was 1362 SFC/10^6 CD8+ T cells and the “immunodominance in IFNγ ELISPOT” value (CD8+ T cells [2]; immunodominant: >500 SFCs/10^6 CD8+ T cells, shared by both ZIKV strains) was “most immunodominant epitope”.
RPRVCTKEEF [FSS/MR-NS5140-149] was tested, and the “% IFNγ+ CD8+ T cells, S221” value (CD8+ T cells [3]) was 0.28%, the “% IFNγ+ CD8+ T cells, MR766” value (CD3+CD8+ T cells; HLA-B*0702 mice) was “(0.24%)” and the “SFC/10^6 CD8+ T cells, FSS13025” value (CD8+ T cells [2]) was 162 SFC/10^6 CD8+ T cells. For the same sequence, the “SFC/10^6 CD8+ T cells, MR766” value (CD8+ T cells [2]) was 311 SFC/10^6 CD8+ T cells.
For RVCSDHAAL [FSS/MR-NS3581-589], the “SFC/10^6 CD8+ T cells, S221” value (CD8+ T cells [1]) was 44 SFC/10^6 CD8+ T cells, the “% IFNγ+ CD8+ T cells, MR766” value (CD3+CD8+ T cells; HLA-B*0702 mice) was “(0.31%)” and the “SFC/10^6 CD8+ T cells, MR766” value (CD8+ T cells [2]) was 411 SFC/10^6 CD8+ T cells.
